# PubChem BioAssay (NCI)
#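 Values below derive from 48-hour exposures of cells grown in 96-well plates, with endpoints linearly interpolated between the two concentrations bracketing the appropriate inhibition level. GI50: concentration for 50% inhibition of growth. At the TGI there is no net growth.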
# Legend:
# Experiment in all cases: NCI-60 cell line screen, 48 h
# 786-0 renal = tested on: 786-0 renal
# A498 renal = tested on: A498 renal
# A549 NSCLC = tested on: A549 NSCLC
# ACHN renal = tested on: ACHN renal
# BT-549 breast = tested on: BT-549 breast
# CAKI-1 renal = tested on: CAKI-1 renal
# CCRF-CEM leukemia = tested on: CCRF-CEM leukemia
# COLO 205 colon = tested on: COLO 205 colon
# DU-145 prostate = tested on: DU-145 prostate
# EKVX NSCLC = tested on: EKVX NSCLC
# HCC-2998 colon = tested on: HCC-2998 colon
# HCT-116 colon = tested on: HCT-116 colon
# HCT-15 colon = tested on: HCT-15 colon
# HL-60(TB) leukemia = tested on: HL-60(TB) leukemia
# HOP-62 NSCLC = tested on: HOP-62 NSCLC
# HOP-92 NSCLC = tested on: HOP-92 NSCLC
# HS 578T breast = tested on: HS 578T breast
# HT29 colon = tested on: HT29 colon
# IGROV1 ovarian = tested on: IGROV1 ovarian
# K-562 leukemia = tested on: K-562 leukemia
# KM12 colon = tested on: KM12 colon
# M14 melanoma = tested on: M14 melanoma
# MALME-3M melanoma = tested on: MALME-3M melanoma
# MCF7 breast = tested on: MCF7 breast
# MDA-MB-231 breast = tested on: MDA-MB-231 breast
# MDA-MB-435 = tested on: MDA-MB-435
# MOLT-4 leukemia = tested on: MOLT-4 leukemia
# NCI-H226 lung = tested on: NCI-H226 lung
# NCI-H460 lung = tested on: NCI-H460 lung
# NCI-H522 lung = tested on: NCI-H522 lung
# NCI/ADR-RES ovarian = tested on: NCI/ADR-RES ovarian
# OVCAR-3 ovarian = tested on: OVCAR-3 ovarian
# OVCAR-4 ovarian = tested on: OVCAR-4 ovarian
# OVCAR-5 ovarian = tested on: OVCAR-5 ovarian
# OVCAR-8 ovarian = tested on: OVCAR-8 ovarian
# PC-3 prostate = tested on: PC-3 prostate
# RPMI-8226 leukemia = tested on: RPMI-8226 leukemia
# RXF 393 renal = tested on: RXF 393 renal
# SF-268 CNS = tested on: SF-268 CNS
# SF-295 CNS = tested on: SF-295 CNS
# SF-539 CNS = tested on: SF-539 CNS
# SK-MEL-2 melanoma = tested on: SK-MEL-2 melanoma
# SK-MEL-28 melanoma = tested on: SK-MEL-28 melanoma
# SK-MEL-5 melanoma = tested on: SK-MEL-5 melanoma
# SK-OV-3 ovarian = tested on: SK-OV-3 ovarian
# SN12C renal = tested on: SN12C renal
# SNB-19 CNS = tested on: SNB-19 CNS
# SNB-75 CNS = tested on: SNB-75 CNS
# SR leukemia = tested on: SR leukemia
# SW-620 colon = tested on: SW-620 colon
# T-47D breast = tested on: T-47D breast
# TK-10 renal = tested on: TK-10 renal
# U251 CNS = tested on: U251 CNS
# UACC-257 melanoma = tested on: UACC-257 melanoma
# UACC-62 melanoma = tested on: UACC-62 melanoma
# UO-31 renal = tested on: UO-31 renal
smiles,measurement,setting,value
C=C(C)[C@@H]1CC[C@]2(COC)CC[C@]3(C)[C@H](CC[C@@H]4[C@@]5(C)CCCNC(C)(C)[C@@H]5CC[C@]43C)[C@@H]12,GI50,786-0 renal,1750 nM
same,TGI,786-0 renal,3480 nM
same,GI50,A498 renal,1660 nM
same,TGI,A498 renal,3110 nM
same,GI50,A549 NSCLC,1600 nM
same,TGI,A549 NSCLC,3160 nM
same,GI50,ACHN renal,1690 nM
same,TGI,ACHN renal,3080 nM
same,GI50,BT-549 breast,1750 nM
same,TGI,BT-549 breast,3210 nM
same,GI50,CAKI-1 renal,1590 nM
same,TGI,CAKI-1 renal,3070 nM
same,GI50,CCRF-CEM leukemia,1240 nM
same,TGI,CCRF-CEM leukemia,2990 nM
same,GI50,COLO 205 colon,1490 nM
same,TGI,COLO 205 colon,3220 nM
same,GI50,DU-145 prostate,1770 nM
same,TGI,DU-145 prostate,3210 nM
same,GI50,EKVX NSCLC,1630 nM
same,TGI,EKVX NSCLC,3140 nM
same,GI50,HCC-2998 colon,1260 nM
same,TGI,HCC-2998 colon,2670 nM
same,GI50,HCT-116 colon,1130 nM
same,TGI,HCT-116 colon,2590 nM
same,GI50,HCT-15 colon,1430 nM
same,TGI,HCT-15 colon,2920 nM
same,GI50,HL-60(TB) leukemia,1330 nM
same,TGI,HL-60(TB) leukemia,3510 nM
same,GI50,HOP-62 NSCLC,1950 nM
same,TGI,HOP-62 NSCLC,3900 nM
same,GI50,HOP-92 NSCLC,1150 nM
same,TGI,HOP-92 NSCLC,2470 nM
same,GI50,HS 578T breast,2530 nM
same,TGI,HS 578T breast,5570 nM
same,GI50,HT29 colon,562 nM
same,TGI,HT29 colon,2090 nM
same,GI50,IGROV1 ovarian,1560 nM
same,TGI,IGROV1 ovarian,3010 nM
same,GI50,K-562 leukemia,323 nM
same,TGI,K-562 leukemia,1660 nM
same,GI50,KM12 colon,1820 nM
same,TGI,KM12 colon,3650 nM
same,GI50,M14 melanoma,1630 nM
same,TGI,M14 melanoma,3340 nM
same,GI50,MALME-3M melanoma,1420 nM
same,TGI,MALME-3M melanoma,3070 nM
same,GI50,MCF7 breast,301 nM
same,TGI,MCF7 breast,2240 nM
same,GI50,MDA-MB-231 breast,1800 nM
same,TGI,MDA-MB-231 breast,3380 nM
same,GI50,MDA-MB-435,1610 nM
same,TGI,MDA-MB-435,3090 nM
same,GI50,MOLT-4 leukemia,1250 nM
same,TGI,MOLT-4 leukemia,3490 nM
same,GI50,NCI-H226 lung,1930 nM
same,TGI,NCI-H226 lung,3930 nM
same,GI50,NCI-H460 lung,1640 nM
same,TGI,NCI-H460 lung,3500 nM
same,GI50,NCI-H522 lung,1730 nM
same,TGI,NCI-H522 lung,3420 nM
same,GI50,NCI/ADR-RES ovarian,1680 nM
same,TGI,NCI/ADR-RES ovarian,3400 nM
same,GI50,OVCAR-3 ovarian,1900 nM
same,TGI,OVCAR-3 ovarian,3730 nM
same,GI50,OVCAR-4 ovarian,1540 nM
same,TGI,OVCAR-4 ovarian,3000 nM
same,GI50,OVCAR-5 ovarian,1660 nM
same,TGI,OVCAR-5 ovarian,3110 nM
same,GI50,OVCAR-8 ovarian,1910 nM
same,TGI,OVCAR-8 ovarian,4000 nM
same,GI50,PC-3 prostate,1260 nM
same,TGI,PC-3 prostate,2520 nM
same,GI50,RPMI-8226 leukemia,1170 nM
same,TGI,RPMI-8226 leukemia,3430 nM
same,GI50,RXF 393 renal,1550 nM
same,TGI,RXF 393 renal,2940 nM
same,GI50,SF-268 CNS,1950 nM
same,TGI,SF-268 CNS,3850 nM
same,GI50,SF-295 CNS,1780 nM
same,TGI,SF-295 CNS,3240 nM
same,GI50,SF-539 CNS,1570 nM
same,TGI,SF-539 CNS,3020 nM
same,GI50,SK-MEL-2 melanoma,1840 nM
same,TGI,SK-MEL-2 melanoma,3520 nM
same,GI50,SK-MEL-28 melanoma,1620 nM
same,TGI,SK-MEL-28 melanoma,2990 nM
same,GI50,SK-MEL-5 melanoma,1590 nM
same,TGI,SK-MEL-5 melanoma,3000 nM
same,GI50,SK-OV-3 ovarian,1790 nM
same,TGI,SK-OV-3 ovarian,3320 nM
same,GI50,SN12C renal,1570 nM
same,TGI,SN12C renal,3090 nM
same,GI50,SNB-19 CNS,1710 nM
same,TGI,SNB-19 CNS,3130 nM
same,GI50,SNB-75 CNS,1750 nM
same,TGI,SNB-75 CNS,3920 nM
same,GI50,SR leukemia,481 nM
same,TGI,SR leukemia,2510 nM
same,GI50,SW-620 colon,1770 nM
same,TGI,SW-620 colon,3710 nM
same,GI50,T-47D breast,1180 nM
same,TGI,T-47D breast,2990 nM
same,GI50,TK-10 renal,1910 nM
same,TGI,TK-10 renal,3520 nM
same,GI50,U251 CNS,1550 nM
same,TGI,U251 CNS,3180 nM
same,GI50,UACC-257 melanoma,1930 nM
same,TGI,UACC-257 melanoma,3760 nM
same,GI50,UACC-62 melanoma,1680 nM
same,TGI,UACC-62 melanoma,3110 nM
same,GI50,UO-31 renal,1450 nM
same,TGI,UO-31 renal,2780 nM
